The values below come from US20080182834A1, “Multi-Nuclear Metal Complexes Partially Encapsulated by Cucurbit[7-12]Urils” (NEWSOUTH INNOVATIONS PTY LIMITED, priority 2004, published 2008).

Broadly, the IC50 is the concentration needed to halve the response being measured. A lower IC50 goes with greater potency in that assay.

The test system of assay [1] is L1210/DDP cisplatin resistant cells. Put plainly: In vitro cytotoxic activity against cisplatin resistant L1210/DDP cells. In kind it is cell-based, murine. The settings on record: concentration required to inhibit cell growth by 50%.
Assay [2] relates to L1210 murine leukaemia cells. Description: In vitro cytotoxic activity against L1210 murine leukaemia cells. In kind it is cell-based. The settings on record: concentration required to inhibit cell growth by 50%.

Regarding “{trans-diamminechloro(μ-dipyrazolylmethane)platinum(II)}chloride [Di-Pt]”, the IC50 was found to be 8.8 µM in assay [1] and 3.8 µM in assay [2].

In the case of “{trans-diamminebis{trans-diamminechloro(μ-1,6-hexanediamine)platinum(II)}platinum(II)}nitrate [BBR3464]”, the IC50 in assay [1] was found to be 0.0245 µM; in assay [2], 0.057 µM.

For “{trans-diamminechloro(μ-spermidine)platinum(II)}chloride [BBR3571]”, the results for the IC50 in assay [1] and in assay [2] were 0.0075 µM and 0.0115 µM, respectively.
